Values quoted from earlier work as cited in patent publication JP2018030810A, “ゲフィチニブを有効成分とする医薬錠剤の製造方法” (Nippon Kayaku Co Ltd, priority 2016, dated 2018).
≈ marks a conversion by molar mass, not a printed value. Where two headings read alike, the source gives them in different places.

solubility (in words) (pH1): 可溶性
solubility (in words) (pH4〜6): 溶解度は大きく低下
solubility (pH6): ~1 mg/mL (≈ 2240 µM)
solubility (in words) (pH7): 実質的に不溶性
aqueous solubility (in words) (small intestine environment, pH4〜8): 水溶解度が極端に低下する
aqueous solubility (in words) (stomach, acidic environment pH1〜4): 良好な水溶解度
solubility (in words) (water): ほとんど溶解しない
Compound: COc1cc2ncnc(Nc3ccc(F)c(Cl)c3)c2cc1OCCCN1CCOCC1 [ゲフィチニブ, N−(3−クロロ−4−フルオロフェニル)−7−メトキシ−6−[3−(モルフォリン−4−イル)プロポキシ]キナゾリン−4−アミン]
